Data set [1] concerns the target T1, Thioredoxin reductase 1, cytoplasmic (Homo sapiens, UniProt Q16881).
T1 sequence (Q16881 whole entry): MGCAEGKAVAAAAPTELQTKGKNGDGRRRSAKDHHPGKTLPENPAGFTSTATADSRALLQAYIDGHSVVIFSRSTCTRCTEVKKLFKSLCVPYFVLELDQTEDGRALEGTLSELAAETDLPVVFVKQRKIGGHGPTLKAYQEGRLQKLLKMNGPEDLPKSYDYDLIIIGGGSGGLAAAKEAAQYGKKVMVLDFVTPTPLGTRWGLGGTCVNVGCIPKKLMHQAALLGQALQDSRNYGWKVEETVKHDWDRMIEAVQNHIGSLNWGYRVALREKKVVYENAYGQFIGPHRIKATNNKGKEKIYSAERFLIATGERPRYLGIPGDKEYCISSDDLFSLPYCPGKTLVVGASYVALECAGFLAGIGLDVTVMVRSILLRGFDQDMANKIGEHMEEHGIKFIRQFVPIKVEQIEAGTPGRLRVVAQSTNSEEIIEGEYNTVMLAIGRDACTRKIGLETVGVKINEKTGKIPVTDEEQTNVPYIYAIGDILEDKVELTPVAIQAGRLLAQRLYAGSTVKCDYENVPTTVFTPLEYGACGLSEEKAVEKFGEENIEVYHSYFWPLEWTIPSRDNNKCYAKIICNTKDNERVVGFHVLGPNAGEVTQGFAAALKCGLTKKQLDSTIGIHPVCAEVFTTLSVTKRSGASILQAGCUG
Put plainly: Inhibition of TrxR in human SH-SY5Y cells using DTNB as substrate preincubated for 15 mins followed by substrate addition and measured for 20 mins by Ellman's method. It is filed as cell-based.

For data set [2], the target named is T2, Thioredoxin reductase 1, cytoplasmic (Rattus norvegicus, UniProt O89049).
T2 sequence (O89049 whole entry): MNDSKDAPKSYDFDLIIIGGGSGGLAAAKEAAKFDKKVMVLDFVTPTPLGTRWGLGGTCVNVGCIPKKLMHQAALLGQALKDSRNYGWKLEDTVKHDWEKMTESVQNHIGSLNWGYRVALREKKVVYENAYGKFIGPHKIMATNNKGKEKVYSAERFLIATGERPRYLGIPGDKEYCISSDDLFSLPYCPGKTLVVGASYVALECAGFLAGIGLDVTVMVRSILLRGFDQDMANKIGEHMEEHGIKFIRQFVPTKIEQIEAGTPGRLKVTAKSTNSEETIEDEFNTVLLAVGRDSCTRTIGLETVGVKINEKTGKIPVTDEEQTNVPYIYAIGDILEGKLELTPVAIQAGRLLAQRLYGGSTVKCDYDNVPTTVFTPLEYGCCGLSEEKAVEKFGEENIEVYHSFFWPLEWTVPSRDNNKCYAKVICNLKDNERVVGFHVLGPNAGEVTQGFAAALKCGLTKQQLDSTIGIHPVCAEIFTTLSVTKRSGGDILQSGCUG
Put plainly: Inhibition of rat TrxR1 using DTNB as substrate preincubated for 15 mins followed by substrate addition and measured for 20 mins by Ellman's method. In general terms: In Ellman's method for cholinesterases, released thiocholine reacts with DTNB.

In data set [3] the target is T1, Thioredoxin reductase 1, cytoplasmic. Put plainly: Inhibition of TrxR1 (unknown origin) using DTNB as substrate preincubated for 30 mins in presence of insulin followed by substrate addition by colorimetry.
The target in data set [4] is T3, Thioredoxin reductase 1, cytoplasmic (Rattus norvegicus) (UniProt O89049).
T3 sequence (whole entry): T2 sequence (O89049 whole entry)
As to the kind of experiment: […] inhibition of rat TrxR1 using DTNB as substrate preincubated for 15 mins in presence of NADPH followed by substrate addition and measured for 20 mins by Ellman's method.

For data set [5], the system named is SH-SY5Y. As to the kind of experiment: Cytotoxicity against human SH-SY5Y cells assessed as reduction in cell viability incubated for 72 hrs by MTT assay. It is filed as functional, cell-based.
Data set [6] relates to U-87 MG. As to the kind of experiment: Cytotoxicity against human U87 cells assessed as reduction in cell viability incubated for 72 hrs by MTT assay. The class given is functional, cell-based, U-87MG ATCC. (Tetrazolium dyes change colour on reduction, which living cells bring about.)
The test system of data set [7] is PBMC. Put plainly: Cytotoxicity against human PBMC assessed as reduction in cell viability incubated for 72 hrs by MTT assay. The class given is cell-based.
Data set [8] relates to HaCaT. Put plainly: Cytotoxicity against human HaCaT assessed as reduction in cell viability incubated for 72 hrs by MTT assay. It is filed as cell-based.
In data set [9] the test system is SH-SY5Y. As to the kind of experiment: Induction of ROS generation in human SH-SY5Y cells incubated for 24 hrs by DHE staining based flow cytometry. The class given is functional, cell-based. On the technique in general: A flow cytometer gives signals particle by particle.
Data set [10] concerns U-87 MG. Put plainly: Induction of ROS generation in human U87 cells incubated for 24 hrs by DHE staining based flow cytometry. The class given is functional, cell-based. The conditions noted are these: U-87MG ATCC.
For data set [11], the system named is HaCaT. Put plainly: Induction of ROS generation in human HaCaT cells incubated for 24 hrs by DHE staining based flow cytometry. The class given is cell-based.
In data set [12] the test system is SH-SY5Y. As to the kind of experiment: Induction of RNS generation in human SH-SY5Y cells incubated for 24 hrs by DHR staining based flow cytometry. The class given is functional.
The subject of data set [13] is U-87 MG. As to the kind of experiment: Induction of RNS generation in human U87 cells incubated for 24 hrs by DHR staining based flow cytometry. The class given is functional, cell-based. The conditions noted are these: U-87MG ATCC.
Data set [14] has as its system HaCaT. As to the kind of experiment: Induction of RNS generation in human HaCaT cells incubated for 24 hrs by DHR staining based flow cytometry. It is filed as cell-based.
Data set [15] deals with SH-SY5Y. Put plainly: Induction of apoptosis in human SH-SY5Y cells assessed as viable cells incubated for 48 hrs by annexin V FITC and propidium iodide staining based flow cytometry (reference value: 92.44 %). The class given is functional.
The subject of data set [16] is SH-SY5Y. As to the kind of experiment: Induction of apoptosis in human SH-SY5Y cells assessed as early apoptotic cells incubated for 48 hrs by annexin V FITC and propidium iodide staining based flow cytometry (reference value: 0.44 %). It is filed as functional.
For data set [17], the system named is SH-SY5Y. Put plainly: Induction of apoptosis in human SH-SY5Y cells assessed as late apoptotic cells incubated for 48 hrs by annexin V FITC and propidium iodide staining based flow cytometry (reference value: 1.37 %). The class given is functional.
Data set [18] has as its system SH-SY5Y. As to the kind of experiment: Induction of apoptosis in human SH-SY5Y cells assessed as necrotic cells incubated for 48 hrs by annexin V FITC and propidium iodide staining based flow cytometry (reference value: 5.75 %). The class given is functional.
Data set [19] in a line: Induction of apoptosis in human HaCaT cells assessed as viable cells incubated for 48 hrs by annexin V FITC and propidium iodide staining based flow cytometry (reference value: 95.78 %). It is filed as cell-based. The conditions noted are these: read-out: Activity.
Data set [20] concerns HaCaT. As to the kind of experiment: Induction of apoptosis in human HaCaT cells assessed as early apoptotic cells incubated for 48 hrs by annexin V FITC and propidium iodide staining based flow cytometry (reference value: 0.02 %). The class given is cell-based.
In data set [21] the test system is HaCaT. As to the kind of experiment: Induction of apoptosis in human HaCaT cells assessed as late apoptotic cells incubated for 48 hrs by annexin V FITC and propidium iodide staining based flow cytometry (reference value: 0.46 %). The class given is cell-based.
Data set [22] has as its system HaCaT. As to the kind of experiment: Induction of apoptosis in human HaCaT cells assessed as necrotic cells incubated for 48 hrs by annexin V FITC and propidium iodide staining based flow cytometry (reference value: 2.74 %). The class given is cell-based.

Each structure is given as a SMILES string. Activity calls are given as the source filed them. The rule behind the calls is not given here.

On to `Cc1ccc(C(=O)/C=C/C(=O)N(C2CC2)C(C(=O)NCc2ccccc2)c2ncc(C)cn2)cc1` (configuration not stated), for which the IC50 in [1] was 31.8 µM; in data set [2] it was 4.2 µM; in data set [3], 6.61 µM; in [5] it was 4.94 µM; in data set [6] it was 15.2 µM; in [7], 15.3 µM. Further, the half-inhibitory concentration (IC50) in [8] turned out to be 5.45 µM. In [4], the inhibition entry was “Active”. For the same molecule, the result in [9], in [10], in [12] and in [13] was inactive. The Activity entry is “Non-Toxic” in data set [11]; “Non-Toxic” in [14]; 81.45% in data set [15]; 1.1% in [16]; 2.91% in [17]; 14.54% in data set [18]. For the same molecule, the Activity in [20] is given as 0.07%; in data set [21] it was 1.06%; in [22], 7.18%. The viability at 48 h in data set [19] came out at 91.7%.

The IC50 is the concentration that inhibits the measured activity by half.

The values above are taken from ChEMBL document CHEMBL4359871, “Novel electrophilic amides amenable by the Ugi reaction perturb thioredoxin system via thioredoxin reductase 1 (TrxR1) inhibition: Identification of DVD-445 as a new lead compound for anticancer therapy” (Eur J Med Chem, 2019).
